Converted amounts (≈) assume the structure as drawn. “And” between values parts separate entries of the source, which are not always exact repeats. Identical values can stand only once.
What was measured:
A-431 = assay: In vitro cytotoxicity against epidermoid carcinoma cell line; assay type: functional, cell-based; conditions: Homo sapiens
BC1 cell line = assay: In vitro cytotoxicity against breast cancer cell line; assay type: functional, cell-based; conditions: Homo sapiens
Colon carcinoma cell = assay: In vitro cytotoxicity against colon cancer cell line; assay type: functional, cell-based; conditions: Homo sapiens
Fibrosarcoma cell line = assay: In vitro cytotoxicity against fibrosarcoma cell line; assay type: functional, cell-based; conditions: Homo sapiens
KB [1] = assay: In vitro cytotoxicity against oral epidermoid carcinoma cell line; assay type: functional, cell-based; conditions: Homo sapiens
P388 = assay: In vitro cytotoxicity against murine lymphoid neoplasm cell line; assay type: functional, cell-based; conditions: Mus musculus
U373 MG = assay: In vitro cytotoxicity against glioblastoma cell line; assay type: functional, cell-based, U-373MG ATCC; conditions: Homo sapiens
Lung cancer cell line = assay: In vitro cytotoxicity against lung cancer cell line; assay type: functional, cell-based; conditions: Homo sapiens
HT-29 = assay: Compound was tested for cytotoxicity against colon adenocarcinoma; assay type: functional, cell-based, Homo sapiens
KB [2] = assay: In vitro cytotoxicity against vinblastine resistant KB cell line; assay type: functional, cell-based; conditions: Homo sapiens
SK-OV-3 [3] = assay: Compound was tested for cytotoxicity against ovarian adenocarcinoma; conditions: Homo sapiens
SK-VLB [4] = assay: Compound was tested for cytotoxicity against ovarian adenocarcinoma, multidrug resistant; conditions: Homo sapiens
SK-OV-3 [5] = assay: Comparison of cytotoxicity of calycopterone and flavone with doxorubicin against ovarian adenocarcinoma; assay type: functional, cell-based, Homo sapiens
SK-VLB [6] = assay: Compound was tested for cytotoxicity against ovarian adenocarcinoma, multidrug resistant; assay type: functional, cell-based; conditions: Homo sapiens

| SMILES | EC50 (A-431) | EC50 (BC1 cell line) | EC50 (Colon carcinoma cell) | EC50 (Fibrosarcoma cell line) | EC50 (KB [1]) | EC50 (P388) | EC50 (U373 MG) | EC50 (Lung cancer cell line) | IC50 (HT-29; Homo sapiens, HT-29) | EC50 (KB [2]) | IC50 (SK-OV-3 [3]) | IC50 (SK-VLB [4]) | IC50 (HT-29; ht-29) | IC50 (SK-OV-3 [5]) | IC50 (SK-VLB [6]) |
| --- | --- | --- | --- | --- | --- | --- | --- | --- | --- | --- | --- | --- | --- | --- | --- |
| COC1=C(OC)[C@@]2(OC)c3c(OC)c(O)c4c(c3O[C@@]23O[C@@H](c2ccccc2)CC=C3C1=O)[C@@H](OC)C[C@H](c1ccccc1)O4 | 0.4 µg/mL (≈ 0.651 µM) | 0.4 µg/mL (≈ 0.651 µM) | 0.3 µg/mL (≈ 0.488 µM) | 0.4 µg/mL (≈ 0.651 µM) | 0.4 µg/mL (≈ 0.651 µM) | 0.2 µg/mL (≈ 0.325 µM) | 0.8 µg/mL (≈ 1.3 µM) | 0.7 µg/mL (≈ 1.14 µM) | – | – | – | – | – | – | – |
| COc1cc(-c2oc3cc(OC)c(OC)c(O)c3c(=O)c2OC)ccc1O [CHRYSOSPLENOL B] | > 20 µg/mL | > 20 µg/mL | > 20 µg/mL | 4.2 µg/mL (≈ 11.2 µM) | > 20 µg/mL | > 20 µg/mL | > 20 µg/mL | > 20 µg/mL | 14200 nM | 0.8 µg/mL (≈ 2.14 µM) | 79000 nM | > 133000 nM | – | – | – |
| COc1cccc2c1C(=O)c1c(O)c3c(c(O)c1C2=O)C[C@@](O)(C(=O)CO)C[C@@H]3O[C@H]1C[C@H](N)[C@H](O)[C@H](C)O1 [DOXORUBICIN] | – | – | – | – | – | – | – | – | 180 nM | – | 43 nM | > 10000 nM | – | – | – |
| COC1=C(OC)[C@@]2(OC)c3c(O)c(OC)c4c(c3O[C@@]23O[C@@H](c2ccccc2)CC=C3C1=O)[C@@H](O)C[C@H](c1ccccc1)O4 | 0.2 µg/mL (≈ 0.333 µM) | 1.4 µg/mL (≈ 2.33 µM) | 0.3 µg/mL (≈ 0.499 µM) | 0.8 µg/mL (≈ 1.33 µM) | 1.2 µg/mL (≈ 2 µM) | 0.42 µg/mL (≈ 0.699 µM) | 0.3 µg/mL (≈ 0.499 µM) | 1.6 µg/mL (≈ 2.66 µM) | – | 8.6 µg/mL (≈ 14.3 µM) | – | – | – | – | – |
| COC1=C(OC)[C@@]2(OC)c3c(O)c(OC)c4c(c3O[C@@]23O[C@@H](c2ccccc2)CC=C3C1=O)[C@@H](OC)C[C@H](c1ccccc1)O4 [CALYCOPTERONE] | 1 µg/mL (≈ 1.63 µM) | 5.4 µg/mL (≈ 8.79 µM) | 0.4 µg/mL (≈ 0.651 µM) | 1.8 µg/mL (≈ 2.93 µM) | 0.8 µg/mL (≈ 1.3 µM) | 0.78 µg/mL (≈ 1.27 µM) | 0.1 µg/mL (≈ 0.163 µM) | 1.2 µg/mL (≈ 1.95 µM) | – | 9.6 µg/mL (≈ 15.6 µM) | – | – | 240 nM and 930 nM | 125 nM and 1000 nM | 1900 nM |
